Experimental data taken from patent USRE47193E1, “Selectively substituted quinoline compounds” (EISAI R&D MANAGEMENT CO., LTD., priority 2013, dated 2019).

Experiments:
Mouse Splenocytes = experiment: Mouse spleen cell-based assay (R848, IL-6 ELISA); settings: Mus musculus, Splenocyte, BALB/c spleen cells, 370 nM R848
Description: Mouse Spleen cell-based assay. Spleens were harvested from female BALB/c mice (Jackson Labs, Bar Harbor, Me.) euthanized by CO2. A single cell suspension was obtained by passing spleens through a 40 μm an nylon cell strainer. Cells were washed twice with 50 ml PBS (Mediatech, Inc., Manassas, Va.) and red blood cells were lysed in 5 ml RBC Lysis buffer (eBioscience, Inc., San Diego, Calif.) for 5 minutes at room temperature. Cells were washed twice more in PBS and finally resuspended in supplemented RPMI-1640 at 2.5×10^6 cells/ml. Cells were plated at 100 μl/well (2.5×10^5 cells/well) in 96-well tissue culture treated plates (Falcon). Serial dilutions of compounds solubilized in 100% DMSO were added in triplicate to cells to yield a final concentration of 0.1% DMSO. Cells were incubated with compound for 30 minutes at 37° C., 5% CO2 before adding 100 μl/well of 740 nM R848 (Resiquimod; GLSynthesis, Worcester, Mass.) in complete media for a final concentration of 370 nM R848. Cells were incubated for 20 hours at 37° C., 5% CO2. Culture supernatants were collected, and levels of IL-6 were assessed by standard ELISA procedure according to the manufacturer's recommended protocol (BD Biosciences, Inc., San Diego, Calif.).

mouse TLR7 = molecular target: T1, mouse TLR7 (Mus musculus, UniProt P58681); experiment: Short-term in vivo (STIV) assay: oral dosing, R848 s.c., plasma IL-6; design: female BALB/c mice (Jackson Labs, Bar Harbor, Me.) were dosed by oral gavage; tissue Jackson Labs; host or cells: living female BALB/c mice; plasma IL-6 after s.c. R848
T1 sequence (P58681 27-1050): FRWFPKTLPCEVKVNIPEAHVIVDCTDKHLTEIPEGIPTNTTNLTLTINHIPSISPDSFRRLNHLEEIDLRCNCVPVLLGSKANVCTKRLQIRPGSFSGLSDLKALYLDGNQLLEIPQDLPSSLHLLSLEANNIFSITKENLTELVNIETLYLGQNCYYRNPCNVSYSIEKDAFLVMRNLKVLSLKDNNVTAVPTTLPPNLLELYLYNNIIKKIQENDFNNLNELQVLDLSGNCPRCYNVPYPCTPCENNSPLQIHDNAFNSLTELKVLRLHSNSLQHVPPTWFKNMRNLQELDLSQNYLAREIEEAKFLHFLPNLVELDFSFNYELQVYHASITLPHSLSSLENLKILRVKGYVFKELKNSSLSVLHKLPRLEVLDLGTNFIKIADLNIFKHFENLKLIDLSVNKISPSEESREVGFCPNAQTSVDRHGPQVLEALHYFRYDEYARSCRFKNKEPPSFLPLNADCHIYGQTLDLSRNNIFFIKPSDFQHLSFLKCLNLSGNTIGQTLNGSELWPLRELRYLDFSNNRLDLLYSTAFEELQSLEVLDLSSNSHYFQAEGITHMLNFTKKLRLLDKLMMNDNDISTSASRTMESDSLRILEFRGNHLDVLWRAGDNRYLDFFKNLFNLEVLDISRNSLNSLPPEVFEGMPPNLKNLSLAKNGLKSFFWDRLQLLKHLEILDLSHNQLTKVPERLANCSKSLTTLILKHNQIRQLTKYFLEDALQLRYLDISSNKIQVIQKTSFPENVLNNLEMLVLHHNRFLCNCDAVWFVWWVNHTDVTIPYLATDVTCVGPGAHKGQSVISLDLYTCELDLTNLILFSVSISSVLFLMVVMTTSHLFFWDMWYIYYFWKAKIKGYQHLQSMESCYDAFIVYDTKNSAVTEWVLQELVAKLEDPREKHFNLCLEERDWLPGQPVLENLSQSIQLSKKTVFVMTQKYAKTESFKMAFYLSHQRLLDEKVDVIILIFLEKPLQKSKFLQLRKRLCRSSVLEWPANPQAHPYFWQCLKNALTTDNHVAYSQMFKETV
Outline: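 Female BALB/c mice (6–8 weeks) dosed orally with compound in 0.5% aqueous methyl-cellulose at 33, 100 or 300 mg/kg; at various times afterwards given 15 ug R848 s.c. to stimulate TLR7. Plasma IL-6 measured by ELISA to gauge potency and duration of action.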

SMILES | IC50 (Mouse Splenocytes) [nM] | % Suppression vs. Vehicle (mouse TLR7; 3 h, 33 mg/kg) [%] | % Suppression vs. Vehicle (mouse TLR7; 3 h, 100 mg/kg) [%] | % Suppression vs. Vehicle (mouse TLR7; 3 h, 300 mg/kg) [%] | % Suppression vs. Vehicle (mouse TLR7; 6 h, 33 mg/kg) [%] | % Suppression vs. Vehicle (mouse TLR7; 6 h, 100 mg/kg) [%] | % Suppression vs. Vehicle (mouse TLR7; 6 h, 300 mg/kg) [%] | % Suppression vs. Vehicle (mouse TLR7; 19 h, 33 mg/kg) [%] | % Suppression vs. Vehicle (mouse TLR7; 19 h, 100 mg/kg) [%] | % Suppression vs. Vehicle (mouse TLR7; 19 h, 300 mg/kg) [%] | further results
C[C@@H]1CN(c2ccc(C#N)c3ncccc23)C[C@H](C)O1 [ER-878952] | 1610 |  |  |  |  |  |  |  |  |  | % Suppression vs. Vehicle (mouse TLR7; 12 h, 200 mg/kg): 93%; % Suppression vs. Vehicle (mouse TLR7; 12 h, 600 mg/kg): 95%; % Suppression vs. Vehicle (mouse TLR7; 18 h, 200 mg/kg): 90%; % Suppression vs. Vehicle (mouse TLR7; 18 h, 600 mg/kg): 96%
C[C@@H]1CN(c2ccc(C#N)c3ncccc23)C[C@H](CO)O1 [ER-885493, 5-((2R,6R)-2-(hydroxymethyl)-6-methylmorpholino)quinoline-8-carbonitrile] | 517 |  |  |  |  |  |  |  |  |  | % Suppression vs. Vehicle (mouse TLR7; 3 h, 22 mg/kg): 39%; % Suppression vs. Vehicle (mouse TLR7; 3 h, 67 mg/kg): 86%; % Suppression vs. Vehicle (mouse TLR7; 3 h, 200 mg/kg): 88%; % Suppression vs. Vehicle (mouse TLR7; 5 h, 22 mg/kg): 26%; % Suppression vs. Vehicle (mouse TLR7; 5 h, 67 mg/kg): 99%; % Suppression vs. Vehicle (mouse TLR7; 5 h, 200 mg/kg): 94%; % Suppression vs. Vehicle (mouse TLR7; 12 h, 400 mg/kg): 76%; % Suppression vs. Vehicle (mouse TLR7; 18 h, 22 mg/kg): 0%; % Suppression vs. Vehicle (mouse TLR7; 18 h, 67 mg/kg): 5%; % Suppression vs. Vehicle (mouse TLR7; 18 h, 200 mg/kg): 29%
CC1CN(c2ccc(C#N)c3ncccc23)CC(CN2CCCC2CO)O1 (centres unmarked) [ER-886814] |  | 93 | 100 | 100 | 57 | 100 | 100 | 14 | 19 | 100 | 
C[C@@H]1CN(c2ccc(C#N)c3ncccc23)C[C@H](CN2CC[C@H](O)C2)O1 [ER-886820] |  | 93 | 100 | 100 | 68 | 96 | 100 | 43 | 35 | 39 | 
C[C@@H]1CN(c2ccc(C#N)c3ncccc23)C[C@H](CN2CCC(O)CC2)O1 [ER-886953] |  | 99 | 99 | 99 | 99 | 99 | 99 | 23 | 45 | 99 | 
C[C@@H]1CN(c2ccc(C#N)c3ncccc23)C[C@H](CNC2CCCC2)O1 [ER-887145] |  | 97 | 99 |  | 91 | 99 |  | 0 | 96 |  | % Suppression vs. Vehicle (mouse TLR7; 3 h after oral dose, 11 mg/kg): 67%; % Suppression vs. Vehicle (mouse TLR7; 6 h, 11 mg/kg): 32%; % Suppression vs. Vehicle (mouse TLR7; 19 h, 11 mg/kg): 0%
C[C@@H]1CN(c2ccc(C#N)c3ncccc23)C[C@H](CN2CCNCC2)O1 [ER-887253] | 49 |  |  |  |  |  |  |  |  |  | 
C[C@@H]1CN(C[C@H]2CN(c3ccc(C#N)c4ncccc34)C[C@@H](C)O2)CCN1 [ER-887269] |  |  |  |  | 95 | 100 | 98 | 9 | 58 | 95 | 
